Assay results published in patent publication US12595251B2, “Amidines and amidine analogs for the treatment of bacterial infections and potentiation antibiotics” (GEORGIA STATE UNIVERSITY RESEARCH FOUNDATION, INC., priority 2018, dated 2026).
“Also recorded” adds a separate entry of the source. Where a name gives a salt, the structure may show the parent alone.

Columns and labels:
wild-type E. coli = experiment: Sensitization of wild-type E. coli toward antibiotics (MIC of antibiotic with/without sensitizer); assay type: cell-based, Escherichia coli; conditions: for Sensitization fold: compound at 5 μg/ml, strain and antibiotic not stated in Table 8
Protocol: Bacteria were cultured with the antibiotic at various concentrations in the presence or absence of bacterial sensitizer for 24 hours at 37° C. Bacterial growth density was determined by measuring OD600 (absorbance measured at a wavelength of 600 nm). […]
The formula for calculating FIC is shown below: […]

[1] = Lipid A binding assay using Dansyl-PMBN displacement on E. coli; parameters: species or system Escherichia coli; conditions: 10 μM Dansyl-PMBN on E. coli, gradual addition of compound
Protocol: FIG. 21 is a graph describing the in vivo lipid A binding assay using Dansyl-PMBN as described in Example 11. Dansyl-PMBN (10 μM) was added to E. coli (OD600 measurement of about 0.5) and the fluorescent intensity at this time was recorded as F0. Sensitizers (Compound C, Compound E-20, and Polymyxin B) were added gradually and the fluorescent intensity was recorded 30 seconds later to determine the fluorescent intensity as a percent. The x-axis is concentration of the sensitizers measured in μM and the y-axis is the fluorescent intensity measured as a percent.
Lipid A is a key component of the outer membrane of Gram-negative bacteria and is responsible for maintaining its integrity of the outer membrane. The binding affinity of the compounds of the present invention to Lipid A was measured following literature procedures using a fluorescent conjugate of a polymyxin-B derivative (Dansyl-PMBN). Dansyl-PMBN binds to the lipid A part of LPS and leads to increased fluorescent intensity. […] When 10 μM of Dansyl-PMBN was added to E. coli stock (OD600 measurement around 0.5), the fluorescent intensity increased 10-fold.

E. coli outer membrane = E. coli outer membrane integrity, lysozyme lysis assay; assay type: cell-based, Escherichia coli; conditions: lysozyme 50 μg/ml, Compound C 25 μg/ml, 10 min, OD600; dihydrochloride
Protocol: FIG. 20 is a graph of the E. coli outer membrane integrity measurement using the lysosomal lysis assay as described in Example 10. E. coli (OD600 measurement of about 0.5) was treated with Compound C with or without lysozyme for 10 minutes at room temperature. E. coli with impaired outer membrane caused by Compound C lead to decreased OD600 measurements. The x-axis is labeled with the compound and the y-axis is E. coli growth density determined by measuring OD600, Polymyxin B and pentamidine were used as positive controls.
The mechanism of action was also elucidated using a well-recognized lysosome assay that allows for assessment of membrane permeability. Specifically, lysozyme (about 14 KDa) breaks down bacterial cell wall and leads to bacterial lysis. However, lysozyme cannot penetrate intact Gram-negative bacterial outer membrane. With impaired Gram-negative bacterial membrane, lysozyme is able to diffuse across the disrupted membrane and enzymatically cleave peptidoglycan, which leads to bacterial lysis. […] In the absence of the sensitizer, no cell lysis was observed.

wild type B. subtilis [2] = experiment: Sensitization of B. subtilis toward antibiotics (MIC, OD600, 24 h); assay type: cell-based, Bacillus subtilis
Protocol: (§1) FIG. 22A is a bar graph showing that Compound M-1 sensitizes B. subtilis towards rifampicin as described in Example 13. Bacteria was cultured with rifampicin at various concentrations in the presence or absence of Compound M-1 for 24 hours at 37° C. and bacterial growth density was determined by measuring OD600. The y-axis is growth density measured in percent. The x-axis is rifampicin concentration measured in micrograms per milliliter (***: p<0.01).
Compound M-1 can sensitize Gram-positive bacteria such as B. subtilis towards traditional antibiotics. […] The sensitization fold is 32-fold for Compound M-1 and the FIC index is 0.14.

E. coli [3] = experiment: E. coli viability with antibiotic in absence or presence of compound (OD600, 20 h); assay type: cell-based, Escherichia coli; conditions: for E. coli growth inhibition, compound in combination with erythromycin: M-1 25 μM or 12 μM, A-1 12 μM, A-8, 20 h
Protocol: (§2) Bacterial viability was then determined by measuring density using OD600.

E. coli [4] = experiment: Resistance frequency analysis of E. coli on agar plates; assay type: cell-based, Escherichia coli; conditions: from 6*10^8 CFU E. coli; antibiotic at 2 to 6-fold MIC with 10 μg/ml Compound M-1, 48 h
Protocol: Resistance frequency is an important issue to consider when developing new antimicrobial agents. Using a standard resistance frequency analysis procedure, the resistance frequency was determined. […] Colonies that survived the antibiotic and Compound M-1 combination were considered resistant mutant strains toward this combinational treatment. […] Compound M-1 lowers the resistance frequency of bacteria toward antibiotics. The component in the combination responsible for the resistance was next determined. The 16 resistant colonies were challenged with another combination-rifampicin and Compound M-1.

B. subtilis = B. subtilis viability with antibiotic in absence or presence of compound (OD600, 20 h); assay type: cell-based, Bacillus subtilis; conditions: for B. subtilis growth inhibition, compound in combination with erythromycin vs erythromycin alone: M-1 12.5 or 6 μM, A-2 6 or 12.5 μM, A-8
Protocol: Bacterial viability was then determined by measuring density using OD600. […] B. subtilis was also cultured with either novobiocin or tetracycline at varying concentrations either in the absence or presence of compound M-1 (12.5 μM) for 20 hours. Bacterial viability was subsequently determined by measuring density using OD600.
as §2

wild type B. subtilis [5] = experiment: Sensitization of B. subtilis toward antibiotics (MIC, OD600, 24 h); assay type: cell-based, Bacillus subtilis; conditions: Compound M-1 5.5 μg/ml
E. coli [6] = experiment: O-methyl novobiocin concentration inside E. coli (HPLC of lysate); assay type: cell-based, Escherichia coli; conditions: 50 μg/ml O-methyl novobiocin, 24 h, with 10 μg/ml Compound M-1 vs without
Protocol: The antibiotic concentration inside E. coli with and without Compound M-1 was measured. The inactivated form of antibiotic was used because the active antibiotic would kill the bacteria or inhibit bacterial growth and this would lead to results that cannot be compared against other control experiments. O-Methyl novobiocin is an inactivated form of novobiocin that was used for this experiment.
E. coli was cultured with 50 μg/ml O-methyl novobiocin for 24 hours at 37° C. with continuous shaking in the absence and presence of 10 μg/ml Compound M-1. E. coli was then centrifuged and the supernatant was removed. To the precipitation that contained E. coli, PBS and novobiocin were added as internal standard and the resulting mixture was sonicated to lyse the cell. The mixture was diluted with acetonitrile (3×) and centrifuged. The supernatant, which contained O-methyl novobiocin, was analyzed by HPLC. The O-methyl novobiocin concentrations inside the bacteria increased 9.1-fold in E. coli in the presence of 10 μg/ml Compound M-1 (FIG. 19). Such results correlate well with the fact that 10 μg/ml Compound M-1 can sensitize E. coli towards novobiocin 8-fold.

MRSA = experiment: Sensitization of MRSA toward antibiotics (OD600, 24 h); assay type: cell-based, Staphylococcus aureus; conditions: for Sensitization of MRSA towards rifampicin (qualitative): FIG. 22B, 24 h, 37 °C
Protocol: as §1, with “Bacteria” for “FIG. 22A is a bar graph showing that Compound M-1 sensitizes B. subtilis towards rifampicin as described in Example 13. Bacteria”
Compound M-1 (2.7 μg/ml) sensitizes MRSA towards existing antibiotics such as rifampicin (32-fold) (FIG. 22B) and trovafloxacin (16-fold). Rifampicin is the first line of defense against MRSA and many MRSA stains grow resistance to rifampicin through overexpression of efflux pump and other mechanisms. Combined with Compound M-1, rifampicin can be used more effectively against MRSA.

B. subtilis and MRSA = experiment: Relative ratio of B. subtilis and MRSA under trovafloxacin with/without Compound A-8; assay type: cell-based, Bacillus subtilis; Staphylococcus aureus
Protocol: FIG. 23B is a comparison of the relative ratio of B. sub and MRSA treated with the antibiotic trovafloxacin in the absence (pie chart on the left) and in the presence (pie chart on the right) of Compound A-8 as described in Example 14. […] However, Compound A-8 sensitizes trovafloxacin to MRSA.
(§3) As a proof of concept, the relative ratio of E. coli and MRSA (FIG. 23A) or B. subtilis and MRSA (FIG. 23 B) was measured with and without Compound A-8. […] However, when trovafloxacin (8 ng/ml) is supplied with 1.5 μg/ml of Compound A-8, MRSA inhibition was achieved and E. coli was the dominant species (89% of the bacteria population).

E. coli and MRSA = experiment: Relative ratio of E. coli and MRSA under trovafloxacin with/without Compound A-8; assay type: cell-based, Escherichia coli; Staphylococcus aureus
Text: FIG. 23A is a comparison of the relative ratio of E. coli and MRSA treated with the antibiotic trovafloxacin in the absence (pie chart on the left) and in the presence (pie chart on the right) of Compound A-8 as described in Example 14. In the absence of Compound A-8, trovafloxacin preferred to inhibit E. coli and the bacterial population was 78% MRSA. However, Compound A-8 sensitizes trovafloxacin to MRSA.
as §3

Klebsiella pneumoniae = experiment: Sensitization of Klebsiella pneumoniae to clarithromycin; assay type: cell-based; conditions: FIG. 16
Text: The x-axis is clarithromycin measured in μg/ml and the y-axis is growth measured in percent.

[7] = trovafloxacin in presence of Compound A-8

SMILES: N=C(N)c1ccc(COc2cc(OCc3ccc(C(=N)N)cc3)cc(C(F)(F)F)c2)cc1 [Compound C, 1,3-Bis {(4-amidino)-benzyloxy}-5-trifluoromethylbenzene dihydrochloride]
- Minimal concentration achieving 10-fold sensitization of E. coli toward erythromycin (wild-type E. coli): 2.5 μg/ml
- Sensitization fold, rifampicin on E. coli (wild-type E. coli; Compound C 2 μg/ml): 8
- Sensitization fold, rifampicin on E. coli (wild-type E. coli; Compound C 4 μg/ml): 128
- Sensitization fold, rifampicin on E. coli (wild-type E. coli; Compound C 6 μg/ml): 1024
- Sensitization fold, rifampicin on E. coli (wild-type E. coli; Compound C 8 μg/ml): 2,048
- MIC of rifampicin on E. coli (wild-type E. coli; with Compound C 2 μg/ml): 1.25 µg/mL
- MIC of rifampicin on E. coli (wild-type E. coli; with Compound C 4 μg/ml): 0.08 µg/mL
- MIC of rifampicin on E. coli (wild-type E. coli; with Compound C 6 μg/ml): 0.01 µg/mL
- MIC of rifampicin on E. coli (wild-type E. coli; with Compound C 8 μg/ml): 0.005 µg/mL
- MIC of rifampicin on E. coli (wild-type E. coli; with Compound C 10 μg/ml): 0.0006 µg/mL
- Binding to lipid A (decrease of Dansyl-PMBN fluorescent intensity) [1]: bind to lipid A
- Lysozyme-induced lysis of E. coli (membrane integrity) (E. coli outer membrane): quick bacterial lysis; also recorded: more potent than pentamidine

SMILES: Cc1cc(COc2ccc(C(=N)N)cc2)cc(COc2ccc(C(=N)N)cc2)c1 [Compound M-1, 4,4′-(((5-Methyl-1,3-phenylene)bis(methylene))bis(oxy))dibenzimidamide Hydrochloride]
- FIC index, rifampicin on B. subtilis (wild type B. subtilis [2]; 5.5 μg/ml Compound M-1): 0.11
- Sensitization fold, B. subtilis towards rifampicin (wild type B. subtilis [2]; 5.5 μg/ml Compound M-1): 256 fold
- Growth density compared with no-treatment group (wild type B. subtilis [2]; 5.5 μg/ml of Compound M-1 by itself): 80%
- MIC (wild type B. subtilis [2]; Bacillus subtilis, read-out: MIC on wild type B. subtilis): 50 µg/mL
- Effect of LPS or Mg2+ on sensitization of E. coli by M-1 with erythromycin (E. coli [3]; 2 mg/mL LPS or 21 mM Mg2+, M-1 12 μM): inhibited
- E. coli growth inhibition, compound in combination with erythromycin (E. coli [3]): significant bacterial growth inhibition
- Colonies resistant to antibiotic-Compound M-1 combinations (E. coli [4]): 16 colonies
- Sensitization of E. coli towards novobiocin (wild-type E. coli; 10 μg/ml Compound M-1): 8 fold
- Sensitization fold (wild-type E. coli): 8
- viability at 12.5 µM (B. subtilis; Bacillus subtilis, 12.5 μM, 20 h, read-out: B. subtilis viability, compound alone): 80%
- B. subtilis growth inhibition, compound in combination with novobiocin or tetracycline (B. subtilis; Compound M-1 12.5 μM, 20 h): significant bacterial growth inhibition
- Effect of lipoteichoic acid (LTA) on growth inhibition by erythromycin + M-1 in B. subtilis (B. subtilis; LTA 1 mg/mL): could be inhibited by co-culturing with lipoteichoic acid (LTA)
- B. subtilis growth inhibition, compound in combination with erythromycin vs erythromycin alone (B. subtilis; 20 h): significant bacterial growth inhibition
- FIC index, erythromycin on B. subtilis (wild type B. subtilis [5]): 0.14
- Sensitization fold, B. subtilis towards clarithromycin (wild type B. subtilis [5]): 32 fold
- Sensitization fold, B. subtilis towards clindamycin (wild type B. subtilis [5]): 16 fold
- Sensitization fold, B. subtilis towards entrapenem (wild type B. subtilis [5]): 4 fold
- Sensitization fold, B. subtilis towards erythromycin (wild type B. subtilis [5]): 32 fold
- Sensitization fold, B. subtilis towards methicillin (wild type B. subtilis [5]): 4 fold
- Sensitization fold, B. subtilis towards novobiocin (wild type B. subtilis [5]): 4 fold
- Sensitization fold, B. subtilis towards trovafloxacin (wild type B. subtilis [5]): 8 fold
- Increase of O-methyl novobiocin concentration inside E. coli (E. coli [6]): 9.1 fold
- Sensitization fold, MRSA towards rifampicin (MRSA; Compound M-1 2.7 μg/ml): 32 fold
- Sensitization fold, MRSA towards trovafloxacin (MRSA; Compound M-1 2.7 μg/ml): 16 fold
- Sensitization of MRSA towards rifampicin (qualitative) (MRSA): sensitize MRSA towards rifampicin

SMILES: CCCCCc1cc(OCc2ccc(C(=N)N)cc2)cc(OCc2ccc(C(=N)N)cc2)c1 [Compound E-20, 1,3-Bis {(4-amidino)-benzyloxy}-5-(n-pentyl)benzene dihydrochloride]
- Binding to lipid A (decrease of Dansyl-PMBN fluorescent intensity) [1]: bind to lipid A

SMILES: Cc1cc(CCc2ccc(C(=N)N)cc2)cc(CCc2ccc(C(=N)N)cc2)c1 [Compound A-8, 4,4′-((5-Methyl-1,3-phenylene)bis(ethane-2,1-diyl))dibenzimidamide Dihydrochloride]
- Concentration required to sensitize B. subtilis towards rifampicin 32-fold (wild type B. subtilis [2]): 3 µg/mL
- B. subtilis share of the bacteria population (B. subtilis + MRSA) (B. subtilis and MRSA; 8 ng/ml trovafloxacin and 1.5 μg/ml of Compound A-8): 99.5%
- MRSA share of the bacteria population (B. subtilis + MRSA) (B. subtilis and MRSA; [7]): 0.5%
- E. coli growth inhibition, compound in combination with erythromycin (E. coli [3]): growth inhibition was also observed
- Concentration required to sensitize wild type E. coli towards rifampicin 32-fold (wild-type E. coli): 7 µg/mL
- Sensitization fold (wild-type E. coli): 16
- B. subtilis growth inhibition, compound in combination with erythromycin vs erythromycin alone (B. subtilis; 20 h): significant bacterial growth inhibition
- E. coli share of the bacteria population (E. coli + MRSA) (E. coli and MRSA; trovafloxacin (8 ng/ml) with 1.5 μg/ml of Compound A-8): 89%
- MRSA share of the bacteria population (E. coli + MRSA) (E. coli and MRSA; [7]): 11%
- Sensitization of Klebsiella pneumoniae to clarithromycin (Klebsiella pneumoniae): sensitization of Klebsiella pneumoniae to clarithromycin
- Concentration required to sensitize MRSA towards rifampicin 32-fold (MRSA): 1.5 µg/mL
- Sensitization of MRSA towards rifampicin (qualitative) (MRSA): sensitize MRSA towards rifampicin
